From ChEMBL document CHEMBL5727796, “Substituted purine derivative” (2020)

Biological target: T1, Toll-like receptor 7 (Homo sapiens, UniProt Q9NYK1)
T1 sequence (Q9NYK1 whole entry): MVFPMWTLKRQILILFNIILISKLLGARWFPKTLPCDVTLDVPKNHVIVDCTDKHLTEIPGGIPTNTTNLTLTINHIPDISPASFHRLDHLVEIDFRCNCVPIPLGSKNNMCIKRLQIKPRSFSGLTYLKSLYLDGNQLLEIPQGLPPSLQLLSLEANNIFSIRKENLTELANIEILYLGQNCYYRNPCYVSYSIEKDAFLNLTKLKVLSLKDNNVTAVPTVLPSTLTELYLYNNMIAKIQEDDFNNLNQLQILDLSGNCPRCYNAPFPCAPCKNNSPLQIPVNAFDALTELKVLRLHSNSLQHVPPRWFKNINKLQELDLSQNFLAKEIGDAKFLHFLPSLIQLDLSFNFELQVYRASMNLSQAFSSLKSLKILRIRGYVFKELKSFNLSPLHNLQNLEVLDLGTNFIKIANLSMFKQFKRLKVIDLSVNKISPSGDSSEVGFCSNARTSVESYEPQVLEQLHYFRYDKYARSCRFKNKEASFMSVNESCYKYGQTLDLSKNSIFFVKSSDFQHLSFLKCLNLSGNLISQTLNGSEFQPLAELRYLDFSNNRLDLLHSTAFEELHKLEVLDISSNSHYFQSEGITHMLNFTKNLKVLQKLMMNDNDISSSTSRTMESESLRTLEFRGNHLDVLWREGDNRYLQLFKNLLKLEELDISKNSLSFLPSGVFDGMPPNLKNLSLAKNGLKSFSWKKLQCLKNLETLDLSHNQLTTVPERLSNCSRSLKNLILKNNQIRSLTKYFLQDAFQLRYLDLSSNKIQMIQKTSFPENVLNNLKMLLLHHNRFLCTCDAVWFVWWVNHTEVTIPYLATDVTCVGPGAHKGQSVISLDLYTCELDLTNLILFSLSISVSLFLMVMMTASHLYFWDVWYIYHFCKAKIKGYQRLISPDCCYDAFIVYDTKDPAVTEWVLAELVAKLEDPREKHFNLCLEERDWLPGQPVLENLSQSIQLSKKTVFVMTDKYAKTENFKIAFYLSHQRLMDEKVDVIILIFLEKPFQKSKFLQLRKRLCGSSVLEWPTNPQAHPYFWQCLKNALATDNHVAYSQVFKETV
Test: Inhibition of the Activation Assay: As human TLR7 expressing cell line, HEK293 cell line was bought from IMGENEX Corporation (TLR7/NF-ηB/SEAPorter™ HEK293 cell), which is human embryonic kidney cell line and stably expresses full-length human TLR7 gene and secreted alkaline phosphatase (SEAP) reporter gene under the transcriptional control of an NE-ηB response element. The TLR7/NF-ηB/SEAPorter™ HEK293 cell was cultivated with DMEM containing 10% fetal bovine serum (FBS) and 10 μg/mL blasticidin S at 37° C. in the presence of 5% CO2.

SMILES | IC50 [nM]
CCOc1nc(N)c2nc(-c3cncc(F)c3)n(Cc3ccc(CN4CCN5CCC4C5)cc3)c2n1 (stereo not given) | 51
CCOc1nc(N)c2nc(-c3cncc(F)c3)n(Cc3ccc(OCCN4CCN(C)CC4)nc3)c2n1 | 280
CCOc1nc(N)c2nc(-c3cncc(F)c3)n(Cc3cccc(OCCN(C)C)c3)c2n1 | 77
CCOc1nc(N)c2nc(-c3cncc(F)c3)n(Cc3ccc(OCCCN(C)C)cc3)c2n1 | 89
CCOc1nc(N)c2nc(-c3cncc(F)c3)n(Cc3ccc(OCCN4CCN(C)CC4)cc3)c2n1 | 67
CCCCOc1nc(N)c2nc(-c3cccc(CN4CCOCC4)c3)n(Cc3ccccc3)c2n1 | 13900
CCOc1nc(C)c2nc(-c3cncc(F)c3)n(Cc3ccc(CN4CCN5CCC4C5)cc3)c2n1 (stereo not given) | 28
COc1nc(C)c2nc(-c3cncc(F)c3)n(Cc3ccc(CC4CCN(C(=O)OC(C)(C)C)CC4)cc3F)c2n1 | 355
CCOc1nc(N)c2nc(-c3cncc(F)c3)n(Cc3cc(CN(C)C)no3)c2n1 | 1300
COc1nc(C)c2nc(-c3cncc(F)c3)n(Cc3ccc(C4=CCN(C(=O)OC(C)(C)C)CC4)cc3F)c2n1 | 291
CCOc1nc(C)c2nc(-c3cncc(F)c3)n(Cc3cnn(C)c3)c2n1 | 2680
COc1nc(C)c2nc(-c3cccnc3)n(Cc3ccc(O[C@@H]4CN5CCC4CC5)cc3F)c2n1 | 70
CCOc1nc(N)c2nc(-c3cncc(F)c3)n(Cc3ccc4c(c3)CN(C(=O)CN(C)C)C4)c2n1 | 460
CCOc1nc(N)c2nc(-c3cncc(F)c3)n(Cc3ccc(F)c(OCCN4CCCC4)c3)c2n1 | 620
CCOc1nc(N)c2nc(-c3cncc(F)c3)n(Cc3ccc(OCCN4CCCC4)nc3)c2n1 | 620
CCOc1nc(N)c2nc(-c3cncc(F)c3)n(Cc3ccc(F)c(OCCN(C)C)c3)c2n1 | 420
CCCCOc1nc(N)c2nc(-c3ccc(OCCCN4CCOCC4)cc3)n(Cc3ccccc3)c2n1 | 4100
COc1nc(C)c2nc(-c3cncc(F)c3)n(Cc3ccc([C@H]4CN5CCC4CC5)cc3)c2n1 | 3

SMILES | IC50 [nM]
CCOc1nc(C)c2nc(-c3cncc(F)c3)n(Cc3ccc(CN4C[C@@H]5C[C@H]4CN5CC)nc3)c2n1 | 230
CCOc1nc(N)c2nc(-c3cncc(F)c3)n(Cc3ccnc(OCCN(C)C)c3)c2n1 | 1800
CCOc1nc(N)c2nc(-c3cncc(F)c3)n(Cc3cccc(OCCN(C)C)n3)c2n1 | 1430
COc1nc(C)c2nc(-c3cncc(F)c3)n(Cc3ccc(C4CCN(C)C4)cc3)c2n1 (stereo not given) | 84
CCOc1nc(C)c2nc(-c3cncc(F)c3)n(Cc3ccc(CN4CCN5CC[C@H]4C5)cc3)c2n1 | 63
CCCCOc1nc(N)c2nc(-c3ccc(CN4CCOCC4)cc3)n(Cc3ccccc3)c2n1 | 8200
CCOc1nc(N)c2nc(-c3cncc(F)c3)n(Cc3ccccc3OC(F)F)c2n1 | 2170
CCOc1nc(N)c2nc(-c3cncc(F)c3)n(Cc3ccc(C4CCN(C)C4)cc3)c2n1 (stereo not given) | 20
CCOc1nc(N)c2nc(-c3cncc(F)c3)n(Cc3cc(OCCN(C)C)ccn3)c2n1 | 5800
CCCCOc1nc(C)c2nc(-c3cncc(F)c3)n(Cc3ccc(CN(C)C)cc3)c2n1 | 200
CCOc1nc(N)c2nc(-c3cncc(F)c3)n(Cc3ccc(OCCN(C)C)nc3)c2n1 | 810
COCCOc1nc(N)c2nc(-c3cncc(C)c3)n(Cc3ccccc3)c2n1 | 9100
CCOc1nc(N)c2nc(-c3cncc(F)c3)n(Cc3ccc(OCCN(C)C)cc3)c2n1 | 99
CCOc1nc(N)c2nc(-c3cncc(F)c3)n(Cc3cccc(OCCCN(C)C)c3)c2n1 | 60
COc1nc(C)c2nc(-c3cnccn3)n(Cc3ccc(C4CN5CCC4CC5)cc3F)c2n1 (stereo not given) | 43
CCOc1nc(C)c2nc(-c3cncc(F)c3)n(Cc3ccc(C4CN5CCC4CC5)cc3)c2n1 (stereo not given) | 7
CCCCCc1nc(N)c2nc(-c3cncc(F)c3)n(Cc3ccccc3)c2n1 | 9500
